From US6133263A, “Endothelin antagonists with ether-linked groups” (Warner-Lambert Company, priority 1998, dated 2000)
Where two headings read alike, the source gives them in different places. Each block holds one compound with its values, some of them ahead of it. Where a SMILES comes first, the peptide text is derived from it. [ ]: non-standard residue; d: D form.

Assays:
human ETA R = biological target: T1, human ETA R (Homo sapiens, UniProt P25101); assay: [125I]-ET-1 radioligand binding assay, Ltk- cells expressing human ETA R (HERBA-A); settings: Ltk- cell membranes, [125I]-ET-1 40 pM, 2 hours at 37° C
T1 sequence (P25101 21-427): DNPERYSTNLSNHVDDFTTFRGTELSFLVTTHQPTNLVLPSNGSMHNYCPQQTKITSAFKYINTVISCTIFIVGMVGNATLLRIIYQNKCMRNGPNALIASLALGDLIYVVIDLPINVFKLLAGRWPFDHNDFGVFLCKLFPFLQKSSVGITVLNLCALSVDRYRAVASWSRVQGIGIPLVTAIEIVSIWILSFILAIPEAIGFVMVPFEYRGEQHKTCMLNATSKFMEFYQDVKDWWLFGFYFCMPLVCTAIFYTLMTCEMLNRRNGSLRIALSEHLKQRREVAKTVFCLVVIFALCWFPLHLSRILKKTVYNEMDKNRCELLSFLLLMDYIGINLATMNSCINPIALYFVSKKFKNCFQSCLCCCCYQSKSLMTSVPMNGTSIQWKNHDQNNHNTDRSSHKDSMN

human ETB R = biological target: T2, human ETB R (Homo sapiens, UniProt P24530); assay: [125I]-ET-1 radioligand binding assay, CHO-K1 cells expressing recombinant human ETB R (HERBA-B); settings: CHO cell membranes, [125I]-ET-1 40 pM, 2 hours at 37° C
T2 construct: expressed in transfected cells; host or cells: CHO-K1 cells, membranes
T2 sequence (P24530 27-442): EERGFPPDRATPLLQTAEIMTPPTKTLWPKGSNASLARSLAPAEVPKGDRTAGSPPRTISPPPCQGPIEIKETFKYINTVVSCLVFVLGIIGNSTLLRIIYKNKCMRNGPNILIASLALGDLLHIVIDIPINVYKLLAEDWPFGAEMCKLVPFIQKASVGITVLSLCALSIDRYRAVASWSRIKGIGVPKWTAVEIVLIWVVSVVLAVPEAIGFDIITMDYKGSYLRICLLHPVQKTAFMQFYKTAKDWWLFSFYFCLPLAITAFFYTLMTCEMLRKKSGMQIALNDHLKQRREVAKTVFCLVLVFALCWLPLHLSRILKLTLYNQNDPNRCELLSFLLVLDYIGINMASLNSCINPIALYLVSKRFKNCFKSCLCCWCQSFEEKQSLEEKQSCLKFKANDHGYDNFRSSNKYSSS
From the text: The compounds of Formula I are valuable as antagonists of endothelin.
The following radioligand binding assays were used (Reynolds E. E.; Keiser J. A.; Haleen S. J.; Walker D. M.; Davis L. S.; Olszewski B.; Taylor D. G.; Hwang O.; Welch K. M.; Flynn M. A.; Thompson D. M.; et. al., J. Pharmacol. Exp. Ther., 1995;273:1410-1417).
The following cultured cells were used in binding experiments: CHO-KL cells expressing recombinant human ETB R (HERBA B), or Ltk- cells expressing human ETA R (HERBA A). […] Membranes were prepared from cultured cells by lysing cells in cold lysis buffer (5 mM HEPES, 2 mM EDTA, pH 7.4) and homogenizing with a Dounce "A" homogenizer. All of the homogenates were centrifuged at 30,000×g for 20 minutes at 4° C. Membrane pellets were resuspended in cold buffer containing 20 mM Tris, […], 200 μM Pefablock, 10 μM phosphoramidon, 10 μM leupeptin, and 1 μM pepstatin (pH 7.4) and frozen at -80° C. until use. Radioligand and competing ligands were prepared in binding buffer containing 20 mM Tris, 2 mM EDTA, and 0.1% BSA.
Competition binding assays were initiated by combining membranes, [^125 ]-ET-1 (40 pM) and competing ligand in a final volume of 250 μL and incubating for 2 hours at 37° C. The assay was terminated by filtration over Whatman GF/B filters that were presoaked with 50 mM Tris, pH 7.4, containing 0.2% BSA and 100 μM bacitracin. […] was defined as total binding minus nonspecific binding. Specific binding was analyzed by nonlinear least squared curve fitting (InPlot, GraphPad Software, San Diego, Calif.), and the estimated IC50 value was used to calculate Ki according to the method of Cheng and Prusoff (1973).

cerebral vasospasm [1] = settings: rat; cited from earlier work
[2] = tested on: endothelin-stimulated arachidonic acid release in rabbit renal artery vascular smooth muscle cells; assay: inhibition of ET-1 stimulated arachidonic acid release (AAR) in cultured rabbit renal artery vascular smooth muscle cells; type: cell-based; settings: Oryctolagus cuniculus, 0.5 h, read-out: AAR-A
[3] = oral; cited from earlier work
[4] = tested on: ET-1 induced bronchoconstriction and tracheal smooth muscle contraction; settings: allergic sheep; cited from earlier work
cerebral vasospasm [5] = settings: in vivo; cited from earlier work
[6] = tested on: pulmonary vascular resistance and pulmonary arterial pressure; settings: rat hypoxia model of hypertension; cited from earlier work
[7] = tested on: ischemic damage in the cerebral hemisphere; settings: cats, middle cerebral artery occlusion, IV; cited from earlier work
ischemic brain injury = settings: rats, oral; cited from earlier work
neointima formation = settings: rats, carotid artery balloon angioplasty; cited from earlier work
[8] = tested on: vasoconstriction of the basilar artery; settings: after 7 days, canine two-hemorrhage model of SAH; cited from earlier work
acute renal ischemia = settings: models of acute renal ischemia; cited from earlier work
[9] = tested on: ET-1-induced changes in gastric mucosal hemodynamics and gastric ulceration; settings: in vivo; cited from earlier work
chronic heart failure = settings: patients with chronic heart failure; cited from earlier work
prostate smooth muscle = settings: in vivo; cited from earlier work

IC50 (human ETA R): 0.0017 µM
IC50 (human ETB R): 0.7 µM
Compound: COc1ccc(C2(OCCN3CCOCC3)OC(=O)C(c3cc(OC)c4c(c3)OCO4)=C2Cc2cc(OC)c(OC)c(OC)c2)cc1 (centres unmarked) [Example 5, 3-(7-Methoxy-benzo[1,3]dioxol-5-yl)-5-(4-methoxy-phenyl)-5-(2-morpholin-4-yl-ethoxy)-4-(3,4,5-trimethoxy-benzyl)-5H-furan-2-one]

Compound: COc1cccc(Oc2c(NS(=O)(=O)c3ccc(C(C)(C)C)cc3)ncnc2OCCO)c1 [Ro 46-2005]
early cerebral vasospasm following SAH (cerebral vasospasm [1]): shown to prevent early cerebral vasospasm

IC50 ([2]; ET-1 0.3 nM, test compound 1 nM to 1 μM, 30 minutes): 0.01 µM
IC50 (human ETA R): 0.0028 µM
IC50 (human ETB R): 12 µM
Compound: COc1ccc(C2(OCCN3CCOCC3)OC(=O)C(c3ccc4c(c3)OCO4)=C2Cc2cc(OC)c(OC)c(OC)c2)cc1 (centres unmarked) [Example 1]

Compound: Cc1noc(NS(=O)(=O)c2cccc3c(N(C)C)cccc23)c1C [5-(Dimethylamino)-N-(3,4-dimethyl-5-isoxazolyl)-1-naphthalenesulfonamide]
antihypertensive effect [3]: demonstrated an oral antihypertensive effect

Compound: CC(C)C[C@@H]1NC(=O)[C@@H](C(C)C)NC(=O)[C@@H]2CCCN2C(=O)[C@@H](CC(=O)O)NC(=O)[C@@H](Cc2c[nH]c3ccccc23)NC1=O [BQ-123] (cyclo(L[dW][dD]P[dV]))
ET-1 induced bronchoconstriction and tracheal smooth muscle contraction [4]: shown to block ET-1 induced bronchoconstriction and tracheal smooth muscle contraction
early cerebral vasospasm following SAH (cerebral vasospasm [5]): shown to prevent early cerebral vasospasm
protection / increase in pulmonary vascular resistance and pulmonary arterial pressure [6]: provide protection in a rat hypoxia model of hypertension

Compound: COc1ccc(C2(O)OC(=O)C(c3ccc4c(c3)OCO4)=C2Cc2cc(OC)c(OC)c(OC)c2)cc1 (centres unmarked) [PD 156707]
volume of ischemic damage in the cerebral hemisphere [7]: significantly reduced
protection / increase in pulmonary vascular resistance and pulmonary arterial pressure [6]: provide protection in a rat hypoxia model of hypertension

Compound: CCCOc1ccc2c(c1)C(c1ccc(OC)cc1OCCO)C(C(=O)O)C2c1ccc2c(c1)OCO2 (centres unmarked) [SB 217242]
ischemic brain injury (ischemic brain injury): Reduction of ischemic brain injury

Compound: CCCOc1ccc2c(c1)C(c1ccc(OC)cc1OCC(=O)O)C(C(=O)O)C2c1ccc2c(c1)OCO2 (single isomer, unassigned) [SB 209670]
neointima formation (neointima formation): found to ameliorate neointima formation

Compound: FR 139317
vasoconstriction of the basilar artery [8]: significantly inhibited the vasoconstriction of the basilar artery

IC50 (human ETA R): 0.012 µM
IC50 (human ETB R): > 2.5 µM
Compound: COc1ccc(C2(OCCCN(C)C)OC(=O)C(c3ccc4c(c3)OCO4)=C2Cc2cc(OC)c(OC)c(OC)c2)cc1 (centres unmarked) [Example 3, 3-Benzo[1,3]dioxol-5-yl-5-(3-dimethylamino-propoxy)-5-(4-methoxy-phenyl)-4-(3,4,5-trimethoxy-benzyl)-5H-furan-2-one]

IC50 (human ETA R): 0.0003 µM
IC50 (human ETB R): 1.08 µM
Compound: COc1ccc(C2(OCCN(C)C)OC(=O)C(c3ccc4c(c3)OCO4)=C2Cc2cc(OC)c(OC)c(OC)c2)cc1 (centres unmarked) [Example 4, 3-Benzo[1,3]dioxol-5-yl-5-(2-dimethylamino-ethoxy)-5-(4-methoxy-phenyl)-4-(3,4,5-trimethoxy-benzyl)-5H-furan-2-one]

IC50 (human ETA R): 0.0026 µM
IC50 (human ETB R): 2.2 µM
Compound: COc1ccc(C2(OCCN(C)C)OC(=O)C(c3cc(OC)cc(OC)c3)=C2Cc2cc(OC)c(OC)c(OC)c2)cc1 (centres unmarked) [Example 6]

Compound: COc1ccc(C2(OCCCS(=O)(=O)O)OC(=O)C(c3ccc4c(c3)OCO4)=C2Cc2cc(OC)c(OC)c(OC)c2)cc1 (centres unmarked)
IC50 [2]: 0.0003 µM
IC50 (human ETA R): 0.00015 µM
IC50 (human ETB R): 1.9 µM

Compound: COc1ccccc1Oc1c(NS(=O)(=O)c2ccc(C(C)(C)C)cc2)nc(-c2ncccn2)nc1OCCO [Bosentan]
efficacy in acute renal ischemia (acute renal ischemia): effective in models of acute renal ischemia
protection / increase in pulmonary vascular resistance and pulmonary arterial pressure [6]: provide protection in a rat hypoxia model of hypertension
ET-1-induced changes in gastric mucosal hemodynamics and ET-1-induced gastric ulceration [9]: found to be an antagonist toward the ET-1-induced changes in gastric mucosal hemodynamics as well as on ET-1-induced gastric ulceration
cardiac performance (chronic heart failure): found to improve cardiac performance

Compound: COc1ccc(C2(O)OC(=O)C(c3ccc4c(c3)OCO4)=C2Cc2ccccc2)cc1 (centres unmarked) [PD 155080]
prostate smooth muscle function (prostate smooth muscle): found to mediate prostate smooth muscle function in vivo
